According to US20250205186A1, “USE OF CHLOROGENIC ACID IN PREPARING MEDICINE OR PHARMACEUTICAL COMPOSITION FOR PREVENTING OR TREATING PAIN” (SICHUAN JIUZHANG BIOLOGICAL SCIENCE AND TECHNOLOGY CO., LTD., priority 2019, published 2025):

What was measured:
[1] = system: bone cancer pain in rats (Walker rat breast cancer cells, tibia implant model); test: Radiant heat pain response (pain threshold) in rat tibia implant bone cancer pain model; assay type: in vivo; conditions: for Radiant heat pain threshold compared with the model group: from 7 days after administration, p<0.05
Method: After two SD female rats were intraperitoneally injected with 0.5 mL cancer cells (4×10^4 cells/μL), ascites was collected on the 7th day, and the cells are rinsed 3 times with sterile 0.01 mol/L PBS to adjust to the concentration of 4×10^3 cells/μL for use. 60 SD rats were randomly selected, and after anesthesia, a small 1 cm incision was made in the upper tibial skin. A 10 mL syringe needle was used to puncture and perforate, then a 10 μL syringe was inserted into the bone marrow cavity, and 3 μL cell suspension containing 3×10^3 Walker rat breast cancer cells was slowly injected. The pinhole was sealed with bone wax, and the skin was sutured. After surgery, the rats were placed on a 37° C. hot plate for rewarming. After recovery, rats were returned to the cage for further breeding, to obtain the model group. In addition, 8 SD rats were randomly selected, and an equal volume of PBS solution was injected into the marrow cavity of the left upper tibia. The rest of the operations were the same as the model group, to obtain the sham operation group. Radiation thermal pain response: the rat was placed on a glass plate, and the affected side of the foot was irradiated with a heat radiator. The plantar side of each rat would be tested 3 times at an interval of 5 min. The response time from exposure to paw withdrawal was recorded, and the time to retract the paw was the pain threshold. […] The rats that had been successfully modeled were randomly divided into groups, eight rats for each group, that included high-dose chlorogenic acid group (80 mg/kg), middle-dose chlorogenic acid group (40 mg/kg), low-dose chlorogenic acid group (20 mg/kg), model negative group (N.S normal saline), and sham operation group (N.S normal saline). The rats were intraperitoneally injected with drugs for 15 days in a volume of 0.2 mL/10 g, once a day; the model-negative group and the sham operation group were given the same volume of normal saline. From the second day after administration, the mechanical pain hypersensitivity and radiation thermal pain were investigated before each administration, and the paw withdrawal threshold and the pain threshold were recorded.

IL-1β = test: Serum IL-1β content by ELISA in bone cancer pain rats; assay type: in vivo, rat; conditions: for Cytokines IL-1β content in serum: after 15 days of administration; for Serum level of IL-1β compared with the model-negative group: after 15 days
Method: (§1) 60 SD rats were randomly selected, and after anesthesia, a small 1 cm incision was made in the upper tibial skin. A 10 mL syringe needle was used to puncture and perforate, then a 10 μL syringe was inserted into the bone marrow cavity, and 3 μL cell suspension containing 3×10^3 Walker rat breast cancer cells was slowly injected. The pinhole was sealed with bone wax, and the skin was sutured. After surgery, the rats were placed on a 37° C. hot plate for rewarming. After recovery, rats were returned to the cage for further breeding, to obtain the model group. In addition, 8 SD rats were randomly selected, and an equal volume of PBS solution was injected into the marrow cavity of the left upper tibia. The rest of the operations were the same as the model group, to obtain the sham operation group. The rats that had been successfully modeled were randomly divided into groups, eight rats for each group, that included high-dose chlorogenic acid group (80 mg/kg), middle-dose chlorogenic acid group (40 mg/kg), low-dose chlorogenic acid group (20 mg/kg), model negative group (N.S normal saline), and sham operation group (N.S normal saline). The rats were intraperitoneally injected with drugs for 15 days in a volume of 0.2 mL/10 g, once a day; the model-negative group and the sham operation group were given the same volume of normal saline. After the last administration, blood was collected from the eyeballs of the rats, and the animals in each group were sacrificed by neck removal. The blood samples were allowed to stand at room temperature for 20 minutes and then centrifuged. The supernatant was collected and the contents of TNF-α, IL-1β, and IL-6 in the peripheral blood serum of the […] were determined by ELISA.

TNF-α = test: Serum TNF-α content by ELISA in bone cancer pain rats; assay type: in vivo, rat; conditions: for Cytokines TNF-α content in serum: after 15 days of administration; for Serum level of TNF-α compared with the model-negative group: after 15 days
Method: as §1

`O=C(/C=C/c1ccc(O)c(O)c1)O[C@@H]1C[C@](O)(C(=O)O)C[C@@H](O)[C@H]1O` [Chlorogenic acid] gave a Pain threshold ([1]; 20 mg/kg ip once a day, 2 d) of 3.86 s, a Pain threshold ([1]; 20 mg/kg ip once a day, 3 d) of 4.11 s and a Pain threshold ([1]; 20 mg/kg ip once a day, 4 d) of 3.93 s. The Pain threshold ([1]; 20 mg/kg ip once a day, 5 d) was 9.53 s, the Pain threshold ([1]; 20 mg/kg ip once a day, 6 d) was 16.66 s and the Pain threshold ([1]; 20 mg/kg ip once a day, 7 d) was 17.89 s. The Pain threshold ([1]; 20 mg/kg ip once a day, 8 d) was 16.72 s, the Pain threshold ([1]; 20 mg/kg ip once a day, 9 d) was 15.45 s and the Pain threshold ([1]; 20 mg/kg ip once a day, 10 d) was 16.74 s. The Pain threshold ([1]; 20 mg/kg ip once a day, 11 d) was 15.52 s, the Pain threshold ([1]; 20 mg/kg ip once a day, 12 d) was 15.97 s and the Pain threshold ([1]; 20 mg/kg ip once a day, 13 d) was 16.35 s. The Pain threshold ([1]; 20 mg/kg ip once a day, 14 d) was 16.22 s, the Pain threshold ([1]; 20 mg/kg ip once a day, 15 d) was 16.75 s and the “Radiant heat pain threshold compared with the model group” value ([1]; 20 mg/kg) was “significant difference”. It also gave a Pain threshold ([1]; 40 mg/kg ip once a day, 2 d) of 3.62 s, a Pain threshold ([1]; 40 mg/kg ip once a day, 3 d) of 3.52 s and a Pain threshold ([1]; 40 mg/kg ip once a day, 4 d) of 6.36 s. The Pain threshold ([1]; 40 mg/kg ip once a day, 5 d) was 12.52 s, the Pain threshold ([1]; 40 mg/kg ip once a day, 6 d) was 20.53 s and the Pain threshold ([1]; 40 mg/kg ip once a day, 7 d) was 20.49 s. The Pain threshold ([1]; 40 mg/kg ip once a day, 8 d) was 19.83 s, the Pain threshold ([1]; 40 mg/kg ip once a day, 9 d) was 21.21 s and the Pain threshold ([1]; 40 mg/kg ip once a day, 10 d) was 24.32 s. The Pain threshold ([1]; 40 mg/kg ip once a day, 11 d) was 20.59 s, the Pain threshold ([1]; 40 mg/kg ip once a day, 12 d) was 21.41 s and the Pain threshold ([1]; 40 mg/kg ip once a day, 13 d) was 22.39 s. For the same compound, the Pain threshold ([1]; 40 mg/kg ip once a day, 14 d) was 21.74 s, the Pain threshold ([1]; 40 mg/kg ip once a day, 15 d) was 20.88 s and the “Radiant heat pain threshold compared with the model group” value ([1]; 40 mg/kg) was “significant difference”. For the same compound, the Pain threshold ([1]; 80 mg/kg ip once a day, 2 d) was 4.17 s, the Pain threshold ([1]; 80 mg/kg ip once a day, 3 d) was 4.24 s and the Pain threshold ([1]; 80 mg/kg ip once a day, 4 d) was 4.09 s. For the same compound, the Pain threshold ([1]; 80 mg/kg ip once a day, 5 d) was 5.52 s, the Pain threshold ([1]; 80 mg/kg ip once a day, 6 d) was 8.15 s and the Pain threshold ([1]; 80 mg/kg ip once a day, 7 d) was 8.22 s. The Pain threshold ([1]; 80 mg/kg ip once a day, 8 d) was 7.98 s, the Pain threshold ([1]; 80 mg/kg ip once a day, 9 d) was 7.59 s and the Pain threshold ([1]; 80 mg/kg ip once a day, 10 d) was 8.03 s. The Pain threshold ([1]; 80 mg/kg ip once a day, 11 d) was 8.05 s, the Pain threshold ([1]; 80 mg/kg ip once a day, 12 d) was 7.76 s and the Pain threshold ([1]; 80 mg/kg ip once a day, 13 d) was 7.98 s. The Pain threshold ([1]; 80 mg/kg ip once a day, 14 d) was 8.52 s, the Pain threshold ([1]; 80 mg/kg ip once a day, 15 d) was 8.38 s and the “Threshold compared with the model group (radiant heat pain section)” value ([1]; 80 mg/kg, p>0.05) was “not statistically significant”. For the same compound, the “Cytokines IL-1β content in serum” value (IL-1β; 20 mg/kg ip once a day) was 58.54 ± 8.23 ng/L, the “Serum level of IL-1β compared with the model-negative group” value (IL-1β; 20 mg/kg, p<0.05) was “lower than those in the model-negative group” and the “Cytokines IL-1β content in serum” value (IL-1β; 40 mg/kg ip once a day) was 52.71 ± 6.39 ng/L. For the same compound, the “Serum level of IL-1β compared with the model-negative group” value (IL-1β; 40 mg/kg, p<0.05) was “lower than those in the model-negative group”, the “Cytokines IL-1β content in serum” value (IL-1β; 80 mg/kg ip once a day) was 76.25 ± 4.62 ng/L and the “Serum level of IL-1β compared with the model-negative group” value (IL-1β; 80 mg/kg) was “the difference was not significant”. For the same compound, the “Cytokines TNF-α content in serum” value (TNF-α; 20 mg/kg ip once a day) was 39.74 ± 6.04 ng/L, the “Serum level of TNF-α compared with the model-negative group” value (TNF-α; 20 mg/kg, p<0.05) was “lower than those in the model-negative group” and the “Cytokines TNF-α content in serum” value (TNF-α; 40 mg/kg ip once a day) was 35.25 ± 4.62 ng/L. The “Serum level of TNF-α compared with the model-negative group” value (TNF-α; 40 mg/kg, p<0.05) was “lower than those in the model-negative group”, the “Cytokines TNF-α content in serum” value (TNF-α; 80 mg/kg ip once a day) was 54.48 ± 5.99 ng/L and the “Serum level of TNF-α compared with the model-negative group” value (TNF-α; 80 mg/kg) was “the difference was not significant”.
